One block for each molecule: values may come before it.
Target: T1, MLLT1 (Homo sapiens, UniProt Q03111)
T1 sequence (Q03111 1-559): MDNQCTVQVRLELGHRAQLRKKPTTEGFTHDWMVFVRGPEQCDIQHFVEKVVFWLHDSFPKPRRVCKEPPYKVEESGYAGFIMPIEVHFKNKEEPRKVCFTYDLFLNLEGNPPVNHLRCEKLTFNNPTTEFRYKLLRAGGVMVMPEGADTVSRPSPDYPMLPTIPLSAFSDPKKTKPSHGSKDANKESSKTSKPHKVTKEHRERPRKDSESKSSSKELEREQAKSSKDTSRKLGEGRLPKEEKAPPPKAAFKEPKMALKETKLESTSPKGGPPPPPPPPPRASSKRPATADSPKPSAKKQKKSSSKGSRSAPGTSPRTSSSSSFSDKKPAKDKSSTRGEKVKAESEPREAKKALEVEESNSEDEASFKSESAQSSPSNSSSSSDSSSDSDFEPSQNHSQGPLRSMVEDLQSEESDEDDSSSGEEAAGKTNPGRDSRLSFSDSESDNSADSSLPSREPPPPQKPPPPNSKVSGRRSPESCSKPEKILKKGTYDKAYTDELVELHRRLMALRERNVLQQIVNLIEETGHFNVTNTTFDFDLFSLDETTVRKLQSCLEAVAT
Test: MLLT1 degradation assay in MV4-11 cells (JESS, 24 h)
Type: cell-based
Design: endogenous in cells; host or cells: MV4-11 (ATCC CRL-9591)
Conditions: vs DMSO control
Method: MLLT1 degradation efficacy of compounds was tested in an automated chemiluminescent detection system (JESS, Cat #004-650). MV4-11 (#CRL-9591, ATCC) cells were seeded at a density of 1.2 million cells/well in a non-treated 6-well cell culture plate in 2.4 mL of complete medium (IMDM+10% FBS+1× Penicillin-Streptomycin). 10 mM DMSO stocks were prepared, and cells were treated with three concentrations of test compounds viz. 1000, 100 and 10 nM at a final DMSO concentration of 0.1% and incubated for 24 h at 37° C., 5% CO2. Post incubation, cells were centrifuged, washed with HBSS and lysed in 70 μL of RIPA buffer supplemented with Protease inhibitors (sc-24948; Santa Cruz). Subsequently, protein estimation was done using BCA protein assay kit (23225; Pierce). 4 ug protein lysate (4 uL of 1 ug/uL lysate) was loaded into each well of the JESS cartridge (SM-W001; Bio-techne) and the JESS run was performed using 1:900 dilution of anti-human MLLT1 antibody (14893; Cell signaling technology) and 1:1200 dilution of anti-human GAPDH antibody (2118; Cell signaling technology) with anti-rabbit secondary detection module (DM-001; Bio-Techne). Post run, data were analysed using “Compass for SW” software for chemiluminescent detection. The peak area for each band was used for the calculation of MLLT1 degradation with respect to DMSO control. Data is shown as “MLLT1% degradation”. • Category A: A≥75% degradation • Category B: 50%≤B<75% degradation • Category C: 25%≤C<50% degradation • Category D: D<25% degradation

Compound: Cc1nn(CCCCCCCC#Cc2ccnc(C(=O)N[C@H]3CCC(=O)NC3=O)c2)c2cc(C(=O)Nc3cc4[nH]c([C@H]5CCCN5C)cc4cn3)ccc12 [Example 43, 1-(9-(2-(((S)-2,6-dioxopiperidin-3-yl)carbamoyl)pyridin-4-yl)non-8-yn-1-yl)-3-methyl-N-(2-((R)-1-methylpyrrolidin-2-yl)-1H-pyrrolo[3,2-c]pyridin-6-yl)-1H-indazole-6-carboxamide]
- MLLT1% Degradation @ 0.01 μM: C (Category C: 25%≤C<50% degradation)
- MLLT1% Degradation @ 0.1 μM: B (Category B: 50%≤B<75% degradation)
- MLLT1% Degradation @ 1 μM: A (Category A: A≥75% degradation)

Compound: Cc1nn(CCCCCCCC#Cc2cccc3c2CN(C2CCC(=O)NC2=O)C3=O)c2cc(C(=O)Nc3cc4[nH]c([C@H]5CC6(CC6)CN5C)cc4cn3)ccc12 (stereo in doubt) [Example 56, 1-(9-(2-(2,6-dioxopiperidin-3-yl)-1-oxoisoindolin-4-yl)non-8-yn-1-yl)-3-methyl-N-(2-((rel-R)-5-methyl-5-azaspiro[2.4]heptan-6-yl)-1H-pyrrolo[3,2-c]pyridin-6-yl)-1H-indazole-6-carboxamide]
- MLLT1% Degradation @ 0.01 μM: A (Category A: A≥75% degradation)
- MLLT1% Degradation @ 0.1 μM: A (Category A: A≥75% degradation)
- MLLT1% Degradation @ 1 μM: A (Category A: A≥75% degradation)

Compound: Cc1nn(CCCCCCCC#Cc2ccc(C(=O)N[C@H]3CCC(=O)NC3=O)nc2)c2cc(C(=O)Nc3cc4[nH]c([C@H]5CCCN5C)cc4cn3)ccc12 [Example 41, 1-(9-(6-(((S)-2,6-dioxopiperidin-3-yl)carbamoyl)pyridin-3-yl)non-8-yn-1-yl)-3-methyl-N-(2-((R)-1-methylpyrrolidin-2-yl)-1H-pyrrolo[3,2-c]pyridin-6-yl)-1H-indazole-6-carboxamide]
- MLLT1% Degradation @ 0.01 μM: D (Category D: D<25% degradation)
- MLLT1% Degradation @ 0.1 μM: C (Category C: 25%≤C<50% degradation)
- MLLT1% Degradation @ 1 μM: B (Category B: 50%≤B<75% degradation)

Compound: Cc1c(OCCCCCCCCn2nc(C)c3ccc(C(=O)Nc4cc5[nH]c([C@H]6CCCN6C)cc5cn4)cc32)cccc1N1CCC(=O)NC1=O [Example 9, 1-{8-[3-(2,4-dioxo-1,3-diazinan-1-yl)-2-methylphenoxy]octyl}-3-methyl-N-{2-[(2R)-1-methylpyrrolidin-2-yl]-1H-pyrrolo[3,2-c]pyridin-6-yl}indazole-6-carboxamide]
- MLLT1% Degradation @ 0.01 μM: D (Category D: D<25% degradation)
- MLLT1% Degradation @ 0.1 μM: C (Category C: 25%≤C<50% degradation)
- MLLT1% Degradation @ 1 μM: A (Category A: A≥75% degradation)

Compound: Cc1nn(CCCCCCCC#Cc2cc3c(cc2F)c(N2CCC(=O)NC2=O)nn3C)c2cc(C(=O)Nc3cc4[nH]c([C@H]5CCCN5C)cc4cn3)ccc12 [Example 65, (R)-1-(9-(3-(2,4-dioxotetrahydropyrimidin-1 (2H)-yl)-5-fluoro-1-methyl-1H-indazol-6-yl)non-8-yn-1-yl)-3-methyl-N-(2-(1-methylpyrrolidin-2-yl)-1H-pyrrolo[3,2-c]pyridin-6-yl)-1H-indazole-6-carboxamide]
- MLLT1% Degradation @ 0.01 μM: C (Category C: 25%≤C<50% degradation)
- MLLT1% Degradation @ 0.1 μM: B (Category B: 50%≤B<75% degradation)
- MLLT1% Degradation @ 1 μM: A (Category A: A≥75% degradation)

Results, then the molecule that gave them:

- MLLT1% Degradation @ 0.01 μM: C (Category C: 25%≤C<50% degradation)
- MLLT1% Degradation @ 0.1 μM: B (Category B: 50%≤B<75% degradation)
- MLLT1% Degradation @ 1 μM: A (Category A: A≥75% degradation)
Compound: Cc1nn(CCCCCCCC#Cc2cccc(C(=O)N[C@H]3CCC(=O)NC3=O)c2F)c2cc(C(=O)Nc3cc4[nH]c([C@H]5CCCN5C)cc4cn3)ccc12 [Example 51, 1-(9-(3-(((S)-2,6-dioxopiperidin-3-yl)carbamoyl)-2-fluorophenyl)non-8-yn-1-yl)-3-methyl-N-(2-((R)-1-methylpyrrolidin-2-yl)-1H-pyrrolo[3,2-c]pyridin-6-yl)-1H-indazole-6-carboxamide]

- MLLT1% Degradation @ 0.01 μM: B (Category B: 50%≤B<75% degradation)
- MLLT1% Degradation @ 0.1 μM: A (Category A: A≥75% degradation)
- MLLT1% Degradation @ 1 μM: A (Category A: A≥75% degradation)
Compound: Cc1nn(CCCCCCC2CCN(c3cccc(C(=O)N[C@H]4CCC(=O)NC4=O)n3)CC2)c2cc(C(=O)Nc3cc4[nH]c([C@H]5CCCN5C)cc4cn3)ccc12 [Example 73, 1-(6-(1-(6-(((S)-2,6-dioxopiperidin-3-yl)carbamoyl)pyridin-2-yl)piperidin-4-yl)hexyl)-3-methyl-N-(2-((R)-1-methylpyrrolidin-2-yl)-1H-pyrrolo[3,2-c]pyridin-6-yl)-1H-indazole-6-carboxamide]

- MLLT1% Degradation @ 0.01 μM: A (Category A: A≥75% degradation)
- MLLT1% Degradation @ 0.1 μM: A (Category A: A≥75% degradation)
- MLLT1% Degradation @ 1 μM: A (Category A: A≥75% degradation)
Compound: Cc1nn(CCOCCCCC#Cc2cccc3c2CN(C2CCC(=O)NC2=O)C3=O)c2cc(C(=O)Nc3cc4[nH]c([C@H]5CCCN5C)cc4cn3)ccc12 (stereo partly drawn) [Example 50, 1-(2-((6-(2-(2,6-dioxopiperidin-3-yl)-1-oxoisoindolin-4-yl)hex-5-yn-1-yl)oxy)ethyl)-3-methyl-N-(2-((R)-1-methylpyrrolidin-2-yl)-1H-pyrrolo[3,2-c]pyridin-6-yl)-1H-indazole-6-carboxamide]

- MLLT1% Degradation @ 0.01 μM: C (Category C: 25%≤C<50% degradation)
- MLLT1% Degradation @ 0.1 μM: B (Category B: 50%≤B<75% degradation)
- MLLT1% Degradation @ 1 μM: A (Category A: A≥75% degradation)
Compound: Cc1nn(CCCCCCCC#Cc2cc3c(cc2F)C(=O)N(C2CCC(=O)NC2=O)C3)c2cc(C(=O)Nc3cc4[nH]c([C@H]5CCCN5C)cc4cn3)ccc12 (stereo partly drawn) [Example 60, 1-(9-(2-(2,6-dioxopiperidin-3-yl)-6-fluoro-1-oxoisoindolin-5-yl)non-8-yn-1-yl)-3-methyl-N-(2-((R)-1-methylpyrrolidin-2-yl)-1H-pyrrolo[3,2-c]pyridin-6-yl)-1H-indazole-6-carboxamide]

- MLLT1% Degradation @ 0.01 μM: C (Category C: 25%≤C<50% degradation)
- MLLT1% Degradation @ 0.1 μM: C (Category C: 25%≤C<50% degradation)
- MLLT1% Degradation @ 1 μM: A (Category A: A≥75% degradation)
Compound: Cc1nn(CCCCN2CCN(c3ccc4c(c3)C(=O)N(C3CCC(=O)NC3=O)C4=O)CC2)c2cc(C(=O)Nc3cc4[nH]c([C@@H]5CCCN5C)cc4cn3)ccc12 (stereo partly drawn) [Example 20, 1-(4-{4-[2-(2,6-dioxopiperidin-3-yl)-1,3-dioxoisoindol-5-yl]piperazin-1-yl}butyl)-3-methyl-N-{2-[(2S)-1-methylpyrrolidin-2-yl]-1H-pyrrolo[3,2-c]pyridin-6-yl}indazole-6-carboxamide]

- MLLT1% Degradation @ 0.01 μM: B (Category B: 50%≤B<75% degradation)
- MLLT1% Degradation @ 0.1 μM: A (Category A: A≥75% degradation)
- MLLT1% Degradation @ 1 μM: A (Category A: A≥75% degradation)
Compound: Cc1nn(CC2CCN(c3cccc4c3CN(C3CCC(=O)NC3=O)C4=O)CC2)c2cc(C(=O)Nc3cc4[nH]c([C@H]5CCCN5C)cc4cn3)ccc12 (stereo in doubt) [Example 108, 1-((1-(2-((rel-R)-2,6-dioxopiperidin-3-yl)-1-oxoisoindolin-4-yl)piperidin-4-yl)methyl)-3-methyl-N-(2-((R)-1-methylpyrrolidin-2-yl)-1H-pyrrolo[3,2-c]pyridin-6-yl)-1H-indazole-6-carboxamide]

- MLLT1% Degradation @ 0.1 μM: B (Category B: 50%≤B<75% degradation)
- MLLT1% Degradation @ 1 μM: A (Category A: A≥75% degradation)
Compound: Cc1nn(CCOCCN2CCN(c3cc4c(cc3F)C(=O)N(C3CCC(=O)NC3=O)C4=O)CC2)c2cc(C(=O)Nc3cc4[nH]c([C@H]5CCCN5C)cc4cn3)ccc12 (stereo partly drawn) [Example 24, 1-(2-(2-(4-(2-(2,6-dioxopiperidin-3-yl)-6-fluoro-1,3-dioxoisoindolin-5-yl)piperazin-1-yl)ethoxy)ethyl)-3-methyl-N-(2-((R)-1-methylpyrrolidin-2-yl)-1H-pyrrolo[3,2-c]pyridin-6-yl)-1H-indazole-6-carboxamide]

Source: patent US20260199484A1, “PROTAC DEGRADERS OF MLLT1 AND/OR MLLT3” (DARK BLUE THERAPEUTICS LTD, priority 2024, published 2026)
